One experiment deals with NL-RLuc virus. As to the kind of experiment: Inhibition of HIV replication (NL-RLuc luciferase reporter virus in MT-2 cells). Type of experiment: cell-based. The note with it: Human immunodeficiency virus 1, MT2, 120 h, read-out: Activity. Put shortly:
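MT-2 cells were infected with NL4-3-derived virus carrying Renilla luciferase in place of part of nef, in RPMI/10% FBS, with serial compound dilutions. Luciferase read after 5 days of multicycle replication. EC50 from the median effect equation, at least 2 experiments.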
Background: In a reporter assay the amount or activity of a reporter protein is the signal.
`Cc1nc(CN2[C@@H]3CC[C@H]2CN(C)C3)c(-c2ccc(OCCc3ccc(F)cc3)cc2)c(N2CCC(C)(C)CC2)c1[C@H](OC(C)(C)C)C(=O)O` [Example 96, (S)-2-(tert-butoxy)-2-(4-(4,4-dimethylpiperidin-1-yl)-5-(4-(4-fluorophenethoxy)phenyl)-2-methyl-6-(((1R,5S)-3-methyl-3,8-diazabicyclo[3.2.1]octan-8-yl)methyl)pyridin-3-yl)acetic acid]: the EC50 is less than 0.1 µM.
On the same count and under the same terms, as for `Cc1nc(CC2CCCCC2)c(-c2ccc(OCCc3ccc(F)cc3)cc2)c(N2CCC(C)(C)CC2)c1[C@H](OC(C)(C)C)C(=O)O` [Example 172, (S)-2-(tert-Butoxy)-2-(6-(cyclohexylmethyl)-4-(4,4-dimethylpiperidin-1-yl)-5-(4-(4-fluorophenethoxy)phenyl)-2-methylpyridin-3-yl)acetic acid], the figure is less than 0.1 µM; as for `CC(=O)N(C)Cc1nc(C)c([C@H](OC(C)(C)C)C(=O)O)c(N2CCC(C)(C)CC2)c1-c1ccc(OCCc2ccc(F)cc2)cc1` [Example 101, (S)-2-(tert-Butoxy)-2-(4-(4,4-dimethylpiperidin-1-yl)-5-(4-(4-fluorophenethoxy)phenyl)-2-methyl-6-((N-methylacetamido)methyl)pyridin-3-yl)acetic acid], less than 0.1 µM.
Same read-out and setting: the value for `Cc1nc(CNCc2ccccn2)c(-c2ccc(OCCc3ccc(F)cc3)cc2)c(N2CCC(C)(C)CC2)c1[C@H](OC(C)(C)C)C(=O)O` [Example 95, (S)-2-(tert-Butoxy)-2-(4-(4,4-dimethylpiperidin-1-yl)-5-(4-(4-fluorophenethoxy)phenyl)-2-methyl-6-(((pyridin-2-ylmethyl)amino)methyl)pyridin-3-yl)acetic acid] was less than 0.1 µM; that for `CCOCCOCc1nc(C)c([C@H](OC(C)(C)C)C(=O)O)c(N2CCC(C)(C)CC2)c1C` [Example 36, (S)-2-(tert-Butoxy)-2-(4-(4,4-dimethylpiperidin-1-yl)-6-((2-ethoxyethoxy)methyl)-2,5-dimethylpyridin-3-yl)acetic acid] was less than 0.1 µM; that for `Cc1nc(COc2ccc(Cl)cc2)c(-c2ccc(OCCc3ccc(F)cc3)cc2)c(N2CCC(C)(C)CC2)c1[C@H](OC(C)(C)C)C(=O)O` [Example 6, (S)-2-(tert-butoxy)-2-(6-((4-chlorophenoxy)methyl)-4-(4,4-dimethylpiperidin-1-yl)-5-(4-(4-fluorophenethoxy)phenyl)-2-methylpyridin-3-yl)acetic acid] was less than 0.1 µM.
Same read-out and setting: the value for `Cc1nc(C(=O)O)c(-c2ccc(OCCc3ccc(F)cc3)cc2)c(N2CCC(C)(C)CC2)c1[C@H](OC(C)(C)C)C(=O)O` [Example 38, (S)-5-(tert-Butoxy(carboxy)methyl)-4-(4,4-dimethylpiperidin-1-yl)-3-(4-(4-fluorophenethoxy)phenyl)-6-methylpicolinic acid] was 0.1 to 1 µM; that for `Cc1cc(F)ccc1CN1CCc2cc(-c3c(CN4CCOCC4)nc(C)c([C@H](OC(C)(C)C)C(=O)O)c3N3CCC(C)(C)CC3)ccc2C1` [Example 121, (S)-2-(tert-Butoxy)-2-(4-(4,4-dimethylpiperidin-1-yl)-5-(2-(4-fluoro-2-methylbenzyl)-1,2,3,4-tetrahydroisoquinolin-6-yl)-2-methyl-6-(morpholinomethyl)pyridin-3-yl)acetic acid] was less than 0.1 µM.
Consider `Cc1nc(CC2=CCCCC2)c(-c2ccc(OCCc3ccc(F)cc3)cc2)c(N2CCC(C)(C)CC2)c1[C@H](OC(C)(C)C)C(=O)O` [Example 171, (S)-2-(tert-Butoxy)-2-(6-(cyclohex-1-en-1-ylmethyl)-4-(4,4-dimethylpiperidin-1-yl)-5-(4-(4-fluorophenethoxy)phenyl)-2-methylpyridin-3-yl)acetic acid], for which the EC50 is less than 0.1 µM.
Turning to `CNCc1nc(C)c([C@H](OC(C)(C)C)C(=O)O)c(N2CCC(C)(C)CC2)c1-c1ccc2c(c1)CCN(Cc1ccc(F)cc1C)C2` [Example 114, (S)-2-(tert-Butoxy)-2-(4-(4,4-dimethylpiperidin-1-yl)-5-(2-(4-fluoro-2-methylbenzyl)-1,2,3,4-tetrahydroisoquinolin-6-yl)-2-methyl-6-((methylamino)methyl)pyridin-3-yl)acetic acid], the EC50 is less than 0.1 µM.
As for `Cc1nc(Cl)c(-c2ccc(OCCc3ccc(F)cc3)cc2)c(N2CCC(C)(C)CC2)c1[C@H](OC(C)(C)C)C(=O)O` (single isomer, unassigned) [Example 52], the EC50 is less than 0.1 µM.
As for `Cc1nc(N)c(-c2ccc3c(c2)CCN(c2ncnc4c2oc2ccccc24)C3)c(N2CCC(C)(C)CC2)c1[C@H](OC(C)(C)C)C(=O)O` [Example 167, (S)-2-(6-amino-5-(2-(benzofuro[3,2-d]pyrimidin-4-yl)-1,2,3,4-tetrahydroisoquinolin-6-yl)-4-(4,4-dimethylpiperidin-1-yl)-2-methylpyridin-3-yl)-2-(tert-butoxy)acetic acid], the EC50 was less than 0.1 µM.
For `Cc1cc(F)ccc1CN1CCc2cc(-c3c(CN4CCC(F)CC4)nc(C)c([C@H](OC(C)(C)C)C(=O)O)c3N3CCC(C)(C)CC3)ccc2C1` [Example 130, (S)-2-(tert-Butoxy)-2-(4-(4,4-dimethylpiperidin-1-yl)-5-(2-(4-fluoro-2-methylbenzyl)-1,2,3,4-tetrahydroisoquinolin-6-yl)-6-((4-fluoropiperidin-1-yl)methyl)-2-methylpyridin-3-yl)acetic acid], the EC50 was less than 0.1 µM.
For `Cc1cc(F)ccc1CN1CCc2cc(-c3c(COC(C)C)nc(C)c([C@H](OC(C)(C)C)C(=O)O)c3N3CCC(C)(C)CC3)ccc2C1` [Example 158, (S)-2-(tert-Butoxy)-2-(4-(4,4-dimethylpiperidin-1-yl)-5-(2-(4-fluoro-2-methylbenzyl)-1,2,3,4-tetrahydroisoquinolin-6-yl)-6-(isopropoxymethyl)-2-methylpyridin-3-yl)acetic acid], the EC50 was less than 0.1 µM.
On to `Cc1nc(C(=O)N(C)CC2CCCCC2)c(-c2ccc(OCCc3ccc(F)cc3)cc2)c(N2CCC(C)(C)CC2)c1[C@H](OC(C)(C)C)C(=O)O` [Example 42, (S)-2-(tert-Butoxy)-2-(6-((cyclohexylmethyl)(methyl)carbamoyl)-4-(4,4-dimethylpiperidin-1-yl)-5-(4-(4-fluorophenethoxy)phenyl)-2-methylpyridin-3-yl)acetic acid], for which the EC50 is less than 0.1 µM.
With `Cc1nc(-c2ncc(Cc3ccc(F)cc3)o2)c(-c2ccc(OCCc3ccc(F)cc3)cc2)c(N2CCC(C)(C)CC2)c1[C@H](OC(C)(C)C)C(=O)O` [Example 45, (S)-2-(tert-Butoxy)-2-(4-(4,4-dimethylpiperidin-1-yl)-6-(5-(4-fluorobenzyl)oxazol-2-yl)-5-(4-(4-fluorophenethoxy)phenyl)-2-methylpyridin-3-yl)acetic acid], the EC50 was less than 0.1 µM.
Same read-out and setting: as for `Cc1nc(CN2CCOCC2)c(-c2ccc(OCCc3ccc(F)cc3)cc2)c(N2CCC(C)(C)CC2)c1[C@H](OC(C)(C)C)C(=O)O` [Example 70, (S)-2-(tert-Butoxy)-2-(4-(4,4-dimethylpiperidin-1-yl)-5-(4-(4-fluorophenethoxy)phenyl)-2-methyl-6-(morpholinomethyl)pyridin-3-yl)acetic acid], the figure is less than 0.1 µM.
On the same count and under the same terms, the value for `COCCNCc1nc(C)c([C@H](OC(C)(C)C)C(=O)O)c(N2CCC(C)(C)CC2)c1-c1ccc2c(c1)CCN(Cc1ccc(F)cc1C)C2` [Example 116, (S)-2-(tert-Butoxy)-2-(4-(4,4-dimethylpiperidin-1-yl)-5-(2-(4-fluoro-2-methylbenzyl)-1,2,3,4-tetrahydroisoquinolin-6-yl)-6-(((2-methoxyethyl)amino)methyl)-2-methylpyridin-3-yl)acetic acid] was less than 0.1 µM; that for `Cc1cccc(Cl)c1CN1CCc2cc(-c3c(C#N)nc(C)c([C@H](OC(C)(C)C)C(=O)O)c3N3CCC(C)(C)CC3)ccc2C1` [Example 166, (S)-2-(tert-butoxy)-2-(5-(2-(2-chloro-6-methylbenzyl)-1,2,3,4-tetrahydroisoquinolin-6-yl)-6-cyano-4-(4,4-dimethylpiperidin-1-yl)-2-methylpyridin-3-yl)acetic acid] was less than 0.1 µM.
Same read-out and setting: as for `C=Cc1nc(C)c([C@H](OC(C)(C)C)C(=O)O)c(N2CCC(C)(C)CC2)c1-c1ccc(OCCc2ccc(F)cc2)cc1` [Example 61, (S)-2-(tert-Butoxy)-2-(4-(4,4-dimethylpiperidin-1-yl)-5-(4-(4-fluorophenethoxy)phenyl)-2-methyl-6-vinylpyridin-3-yl)acetic acid], the figure is less than 0.1 µM; as for `Cc1nc(CN(C)C)c([C@H](OC(C)(C)C)C(=O)O)c(N2CCC(C)(C)CC2)c1-c1ccc(OCCc2ccc(F)cc2)cc1` [Example 112, (S)-2-(tert-Butoxy)-2-(2-((dimethylamino)methyl)-4-(4,4-dimethylpiperidin-1-yl)-5-(4-(4-fluorophenethoxy)phenyl)-6-methylpyridin-3-yl)acetic acid], less than 0.1 µM.
`Cc1ncc(-c2ccc(OCCc3ccc(F)cc3)cc2)c(N2CCC(C)(C)CC2)c1[C@H](OC(C)(C)C)C(=O)O` [Example 63, (S)-2-(tert-Butoxy)-2-(4-(4,4-dimethylpiperidin-1-yl)-5-(4-(4-fluorophenethoxy)phenyl)-2-methylpyridin-3-yl)acetic acid]: the EC50 was less than 0.1 µM.
Still for that read-out and setting: as for `Cc1cc(F)ccc1CN1CCc2cc(-c3c(CN4CCCC(F)C4)nc(C)c([C@H](OC(C)(C)C)C(=O)O)c3N3CCC(C)(C)CC3)ccc2C1` (stereo partly drawn) [Example 131, (2S)-2-(tert-Butoxy)-2-(4-(4,4-dimethylpiperidin-1-yl)-5-(2-(4-fluoro-2-methylbenzyl)-1,2,3,4-tetrahydroisoquinolin-6-yl)-6-((3-fluoropiperidin-1-yl)methyl)-2-methylpyridin-3-yl)acetic acid], the figure is less than 0.1 µM.

Staying with this experiment, now noted: Human immunodeficiency virus 1, MT2, 120 h, read-out: EC50 μM.
As for `Cc1nc(COc2ccc(Cl)cc2)c(-c2ccc(OCCc3ccc(F)cc3)cc2)c(N2CCC(C)(C)CC2)c1[C@H](OC(C)(C)C)C(=O)O` [Example 6, (S)-2-(tert-butoxy)-2-(6-((4-chlorophenoxy)methyl)-4-(4,4-dimethylpiperidin-1-yl)-5-(4-(4-fluorophenethoxy)phenyl)-2-methylpyridin-3-yl)acetic acid], the EC50 worked out at 0.02 µM.
For `Cc1nc(C(=O)N(C)CC2CCCCC2)c(-c2ccc(OCCc3ccc(F)cc3)cc2)c(N2CCC(C)(C)CC2)c1[C@H](OC(C)(C)C)C(=O)O` [Example 42, (S)-2-(tert-Butoxy)-2-(6-((cyclohexylmethyl)(methyl)carbamoyl)-4-(4,4-dimethylpiperidin-1-yl)-5-(4-(4-fluorophenethoxy)phenyl)-2-methylpyridin-3-yl)acetic acid], the EC50 came out at 0.004 µM.

These data come from patent US10351546B2, “Pyridin-3-yl acetic acid derivatives as inhibitors of human immunodeficiency virus replication” (priority 2015, dated 2019).
